Settings: 293.15 K, Liquid, Vibrating tube method

CCCCCCCCCC [decane]
Settings	mass density [kg/m3]
12325 kPa	739.1
12342 kPa	739.1
12359 kPa	739
12381 kPa	739
12401 kPa	739.1
12417 kPa	739
12437 kPa	739.1
12454 kPa	739
12476 kPa	739.3
12499 kPa	739.2
12516 kPa	739.1
12536 kPa	739.1
12556 kPa	739.1
12576 kPa	739.1
12593 kPa	739.2
12610 kPa	739.3
12633 kPa	739.3
12653 kPa	739.2
12677 kPa	739.2
12703 kPa	739.2
12720 kPa	739.2
12744 kPa	739.3
12759 kPa	739.2
12785 kPa	739.3
12809 kPa	739.3
12827 kPa	739.3
12851 kPa	739.3
12872 kPa	739.5
12896 kPa	739.3
12917 kPa	739.5
12939 kPa	739.5
12957 kPa	739.4
12978 kPa	739.4
12999 kPa	739.5
13018 kPa	739.5
13039 kPa	739.5
13058 kPa	739.5
13080 kPa	739.6
13098 kPa	739.5
13127 kPa	739.6
13152 kPa	739.6
13172 kPa	739.7
13197 kPa	739.5
13216 kPa	739.6
13235 kPa	739.6
13251 kPa	739.7
13274 kPa	739.7
13290 kPa	739.7
13309 kPa	739.7
13329 kPa	739.6
13359 kPa	739.6
13385 kPa	739.8
13408 kPa	739.7
13435 kPa	739.7
13459 kPa	739.8
13479 kPa	739.8
13501 kPa	740
13525 kPa	739.9
13548 kPa	739.8
13569 kPa	740
13586 kPa	739.9
13609 kPa	739.9
13626 kPa	739.9
13644 kPa	739.8
13667 kPa	740
13686 kPa	740
13701 kPa	740
13722 kPa	739.9
13745 kPa	740
13766 kPa	739.9
13784 kPa	739.9
13802 kPa	740
13820 kPa	740
13844 kPa	740
13862 kPa	740.1
13881 kPa	739.9
13903 kPa	740.2
13927 kPa	740.1
13943 kPa	740.1
13967 kPa	740.3
13989 kPa	740.1
14008 kPa	740.2
14024 kPa	740.3
14044 kPa	740.1
14061 kPa	740.2
14081 kPa	740.3
14098 kPa	740.3
14121 kPa	740.2
14139 kPa	740.3
14151 kPa	740.3
14167 kPa	740.2
14181 kPa	740.4
14194 kPa	740.3
14205 kPa	740.2
14220 kPa	740.4
14232 kPa	740.3
14245 kPa	740.4
14257 kPa	740.4
14269 kPa	740.2
14281 kPa	740.3
14297 kPa	740.4
14314 kPa	740.4
14325 kPa	740.4
14339 kPa	740.4
14352 kPa	740.4
14363 kPa	740.4
14376 kPa	740.4
14389 kPa	740.4
14404 kPa	740.4
14418 kPa	740.4
14427 kPa	740.5
14443 kPa	740.4
14458 kPa	740.5
14471 kPa	740.4
14483 kPa	740.6
14500 kPa	740.6
14517 kPa	740.5
14529 kPa	740.4
14542 kPa	740.6
14554 kPa	740.4
14566 kPa	740.6
14580 kPa	740.6
14592 kPa	740.5
14605 kPa	740.5
14617 kPa	740.6
14637 kPa	740.6
14650 kPa	740.7
14664 kPa	740.6
14676 kPa	740.7
14691 kPa	740.6
14706 kPa	740.7
14717 kPa	740.7
14735 kPa	740.6
14753 kPa	740.7
14765 kPa	740.7
14779 kPa	740.7
14791 kPa	740.7
14807 kPa	740.7
14821 kPa	740.7
14833 kPa	740.8
14847 kPa	740.7
14859 kPa	740.7
14877 kPa	740.9
14893 kPa	740.7
14910 kPa	740.8
14926 kPa	740.8
14943 kPa	740.9
14959 kPa	740.8
14975 kPa	740.9
14992 kPa	740.9
15008 kPa	740.8
15023 kPa	740.8
15039 kPa	740.9
15050 kPa	740.9
15066 kPa	740.9
15087 kPa	740.9
15102 kPa	740.9
15115 kPa	741
15129 kPa	740.8
15143 kPa	741
15156 kPa	740.9
15175 kPa	741
15192 kPa	741
15209 kPa	740.9
15224 kPa	741
15236 kPa	741
15251 kPa	741.2
15270 kPa	741.1
15288 kPa	741.1
15305 kPa	741.1
15317 kPa	741.1
15339 kPa	741.1
15352 kPa	741
15365 kPa	741.1
15382 kPa	741.1
15393 kPa	741.1
15408 kPa	741.2
15428 kPa	741.1
15443 kPa	741.2
15454 kPa	741
15470 kPa	741.2
15485 kPa	741.2
15503 kPa	741.2
15519 kPa	741.2
15539 kPa	741.2
15556 kPa	741.1
15572 kPa	741.2
15588 kPa	741.1
15604 kPa	741.4
15622 kPa	741.2
15644 kPa	741.2
15658 kPa	741.2
15676 kPa	741.3
15694 kPa	741.4
15710 kPa	741.3
15722 kPa	741.3
15735 kPa	741.3
15751 kPa	741.4
15769 kPa	741.4
15792 kPa	741.3
15809 kPa	741.5
15827 kPa	741.3
15843 kPa	741.3
15857 kPa	741.5
15872 kPa	741.5
15888 kPa	741.4
15909 kPa	741.5
15925 kPa	741.5
15942 kPa	741.5
15959 kPa	741.5
15974 kPa	741.5
15989 kPa	741.5
16007 kPa	741.6
16024 kPa	741.5
16039 kPa	741.6
16056 kPa	741.5
16073 kPa	741.6
16093 kPa	741.6
16108 kPa	741.6
16128 kPa	741.6
16142 kPa	741.6
16167 kPa	741.7
16183 kPa	741.8
16198 kPa	741.7
16215 kPa	741.7
16233 kPa	741.7
16251 kPa	741.8
16267 kPa	741.8
16282 kPa	741.7
16298 kPa	741.7
16314 kPa	741.7
16332 kPa	741.6
16345 kPa	741.8
16369 kPa	741.8
16390 kPa	741.8
16405 kPa	741.8
16426 kPa	741.8
16442 kPa	741.9
16464 kPa	741.8
16484 kPa	741.9
16503 kPa	741.9
16517 kPa	741.9
16533 kPa	741.9
16557 kPa	741.9
16569 kPa	741.9
16584 kPa	741.8
16597 kPa	741.9
16615 kPa	741.9
16628 kPa	742
16646 kPa	742
16662 kPa	742.1
16681 kPa	742
16694 kPa	742
16705 kPa	742.1
16717 kPa	742
16728 kPa	742
16745 kPa	742.2
16761 kPa	742
16772 kPa	742.1
16786 kPa	742
16800 kPa	742
16814 kPa	742
16828 kPa	742.2
16842 kPa	742
16860 kPa	742.1
16874 kPa	742.1
16892 kPa	742.1
16905 kPa	742.1
16923 kPa	742.2
16935 kPa	742.1
16956 kPa	742.1
16972 kPa	742.3
16986 kPa	742.2

Source: the NIST ThermoML archive (doi:10.1021/je800110r)
